Experiments:
Type in all cases: physicochemical
[1] = Solubility of solubilized capsule formulations in SGF at 37° C.
[2] = Aqueous solubility of the active compound; settings: water; at about room temperature
[3] = Solubility of solubilized capsule formulations in FaSSIF at 37° C.; settings: FaSSIF pH 6.5, 37° C.
[4] = Solubility of solubilized capsule formulations in FeSSIF at 37° C.; settings: FeSSIF pH 5.0, 37° C.

For `NC(=O)[C@@H](CCC(F)(F)F)N(Cc1ccc(-c2ncon2)cc1F)S(=O)(=O)c1ccc(Cl)cc1` [Active Compound, (2R)-2-[[(4-chlorophenyl)sulfonyl][[2-fluoro-4-(1,2,4-oxadiazol-3-yl)phenyl]methyl]amino]-5,5,5-trifluoropentanamide], the “ACTIVE COMPOUND Concentration” value ([1]; 5 Min.) was 0.0 µg/mL, the “ACTIVE COMPOUND Concentration” value ([1]; 15 Min.) was 4.6 µg/mL and the “ACTIVE COMPOUND Concentration” value ([1]; 24 Hr.) was 1.0 µg/mL. For the same compound, the “ACTIVE COMPOUND Concentration” value ([1]; 30 Min.) was 1.6 µg/mL, the “ACTIVE COMPOUND Concentration” value ([1]; 60 Min.) was 1.0 µg/mL and the solubility [2] was less than 1 µg/mL. The “ACTIVE COMPOUND Concentration” value ([3]; 5 Min.) was 2.5 µg/mL, the “ACTIVE COMPOUND Concentration” value ([3]; 15 Min.) was 3.8 µg/mL and the “ACTIVE COMPOUND Concentration” value ([3]; 24 Hr.) was 7.7 µg/mL. For the same compound, the “ACTIVE COMPOUND Concentration” value ([3]; 30 Min.) was 4.6 µg/mL, the “ACTIVE COMPOUND Concentration” value ([3]; 60 Min.) was 6.0 µg/mL and the “ACTIVE COMPOUND Concentration” value ([4]; 5 Min.) was 9.7 µg/mL. For the same compound, the “ACTIVE COMPOUND Concentration” value ([4]; 15 Min.) was 11.5 µg/mL, the “ACTIVE COMPOUND Concentration” value ([4]; 30 Min.) was 13.3 µg/mL and the “ACTIVE COMPOUND Concentration” value ([4]; 60 Min.) was 15.3 µg/mL.

Source: patent US8252821B2, “Bioavailable capsule compositions of amorphous alpha-(N-sulfonamido)acetamide compound” (Bristol-Myers Squibb Company, priority 2009, dated 2012)
